Test results from PubChem BioAssay AID489022 (Sanford-Burnham Center for Chemical Genomics, 2010).
Activity calls are given as the source filed them. The rule behind the calls is not given here.

Tested on: HEK-293T NF-kB luciferase reporter, luminescence counterscreen
Assay: inhibitors of NF-kB luciferase reporter, HEK-293T, dose response, counter-screen for BCR NF-kB inhibitor project, luminescence, B-cell screen hits (AID 489022)

Compound	IC50
CCOc1ccc(-c2nc(CSCC(=O)NC3CC3)c(C)o2)cc1	> 80 µM (inactive)
CC1CCc2c(sc3nc(C(C)(C)C)nc(N4CCN(C(=O)CCl)CC4)c23)C1 (stereo not drawn)	30.6 µM (inactive)
COc1ccc(/C=C2\SC(=S)N(CCCC(=O)Nc3ccc(O)cc3)C2=O)cc1	> 80 µM (inactive)
CCn1c(=O)cc(SCC(=O)N2CCC(C)CC2)c2ccccc21	70.9 µM (inactive)
COc1ccc(/C=N\NC(=O)c2sccc2C)cc1Cn1nc(C)cc1C	25.4 µM (inactive)
O=C(NNC(=O)c1ccccc1O)c1ccc(Cl)c(S(=O)(=O)N2CCc3ccccc32)c1	0.47 µM
Cc1csc(NC(=O)CCc2c(C)nc3cc(-c4ccc(Cl)cc4)nn3c2C)n1	10.2 µM
Cc1cc(C)c(S(=O)(=O)NCc2ccncc2)c(C)c1	0.97 µM
O=C(CCCN1C(=O)S/C(=C\c2ccccc2)C1=O)NNC(=O)c1ccccc1O	1.64 µM
Cc1ccc(/C=C2\SC(=S)N(CCCC(=O)Nc3ccccn3)C2=O)cc1	32.1 µM (inactive)
CSc1ccc(-c2nc(CSCC(=O)NC3CC3)c(C)o2)cc1	37.7 µM (inactive)
CCC(CO)Oc1cc(NCc2ccccc2O)c2ncn(C(C)C)c2c1 (stereo not drawn)	4.79 µM
O=[N+]([O-])c1ccc(Sc2cc[n+]([O-])c3ccccc23)c([N+](=O)[O-])c1	> 80 µM (inactive)
CCCNC(=O)CSCc1nc(-c2ccc(SC)cc2)oc1C	38.5 µM (inactive)
CC1CCN(c2c(NCc3ccc(C(=O)N4c5ccccc5CC4C)cc3)c(=O)c2=O)CC1 (stereo not drawn)	8.73 µM
CNC(=O)c1cc(Nc2nnc(-c3ccc(O)cc3)c3ccccc23)ccc1OC	> 80 µM (inactive)
CN1CCN(C(=O)c2ccccc2N(Cc2ccccc2)S(=O)(=O)c2ccccc2)CC1	45.4 µM (inactive)
CCn1c(=O)cc(SCC(=O)N2CCOCC2)c2ccccc21	> 80 µM (inactive)
Cc1cc(C)nc(Sc2ccc([N+](=O)[O-])cc2[N+](=O)[O-])n1	> 80 µM (inactive)
O=C(O)CCSc1nc2ccccc2s1	2.07 µM
Cc1ccccc1-c1cc(C(=O)Nc2sc(C(=O)OC(C)C)c(C)c2C#N)c2ccccc2n1	0.35 µM
CCOc1ccc(-c2noc(CCC(=O)O)n2)cc1	8.98 µM
Cc1ccc2nc(NC(=O)CSCC(=O)OCC(=O)c3ccc(Br)cc3)sc2c1	1.82 µM
Cc1cc(N(C)C)ccc1N=Nc1ccc(N)cc1	64.3 µM (inactive)
COc1ccc(NS(=O)(=O)c2ccc(-c3coc(C)n3)cc2)cc1OC	0.66 µM

Compound	IC50
Oc1[nH]c2ccccc2c1N=Nc1nc(Nc2ccccc2)nc(N2CCOCC2)n1	35.5 µM (inactive)
COc1ccc(/C=N/OCC(=O)NC(c2ccccc2)c2ccccc2)cc1OC	0.72 µM
CCOC(=O)C1CCN(c2ncnc3c2cnn3-c2ccc(Cl)cc2)CC1	1.25 µM
CCN1C(=O)c2cccc3c(S(=O)(=O)Nc4ccccn4)ccc1c23	9.44 µM
Cc1cc(C)cc(NC(=O)Nc2ccc(NC(=O)c3ccccc3O)cc2)c1	> 80 µM (inactive)
CC1=CC(C)(C)Nc2ccc(OC(=O)c3ccco3)cc21	16.3 µM
COc1ccc(OCc2cccc(C(=O)Nc3cc(C)on3)c2)cc1	50.6 µM (inactive)
COc1ccc(C(C(=O)NC2CCCCC2)N(C(=O)CCl)c2ccc(OC)cc2)cc1 (stereo not drawn)	15.2 µM
Cc1cccn2c(=O)c3cc(C(=O)NC4CCCCC4)c(=N)n(CCN4CCOCC4)c3nc12	> 80 µM (inactive)
CCN(CC(=O)Nc1c(F)cccc1F)C(=O)C1(c2ccccc2)CC1	> 80 µM (inactive)
COc1ccc(-c2ccc(C)cc2)cc1[C@H]1[C@H]2C=CC[C@@H](C)[C@@H]2C(=O)N1Cc1ccccc1	48.4 µM (inactive)
COc1cc(C[C@@H]2C(=O)OC[C@H]2Cc2ccc(OC)c(OC)c2)ccc1O	0.66 µM
CCCCOc1ccc(NC(=O)C(=O)NCCCn2ccnc2)cc1	44.6 µM (inactive)
COc1ccc(NS(=O)(=O)c2cc(NC(=O)c3cc(=O)c4ccccc4o3)ccc2OC)cc1	> 80 µM (inactive)
Cc1ccccc1-n1c(SCc2c(C)noc2C)nnc1-c1c[nH]c2ccccc12	33.8 µM (inactive)
CCCCCOc1ccc(NC(=O)C(=O)NCCCn2ccnc2)cc1	42.8 µM (inactive)
CCc1ccc2nc(Nc3nc(COC)cc(=O)[nH]3)nc(C)c2c1	46.4 µM (inactive)
Cc1cc(C)c2nc(NC(=O)C3CSC4(C)CCC(=O)N34)sc2c1 (stereo not drawn)	> 80 µM (inactive)
CCN(CC(=O)Nc1c(F)cccc1F)C(=O)c1cc(S(=O)(=O)N2CCOCC2)ccc1N1CCCC1	> 80 µM (inactive)
Cn1c(=O)cc(Nc2ccccc2)c2c(=O)n(-c3ccccc3)c(=O)n(-c3ccccc3)c21	79.1 µM (inactive)
CC1Cc2ccccc2N1S(=O)(=O)c1cnc(Cl)c(Br)c1 (stereo not drawn)	41.6 µM (inactive)
COC(=O)c1c(-c2ccc(N(C)C)cc2)sc2ccc(OC)cc12	> 80 µM (inactive)
Cn1c(=O)cc(OCCCC(=O)N2CCCCC2)c2ccccc21	60.2 µM (inactive)
COc1ccc(-c2noc(CCCC(=O)O)n2)cc1	4.02 µM
O=C(O)CCn1c(O)c(C=C2N=c3ccccc3=N2)sc1=S	70.8 µM (inactive)

Compound	IC50
C=CCn1c(O)c(C(CC)=NC(C)c2ccccc2)c(=O)[nH]c1=O (stereo not drawn)	25 µM (inactive)
Cc1nc(Nc2c(Cl)cccc2Cl)sc1C(=O)Nc1ccccc1	33 µM (inactive)
Cc1ccoc1C(=O)Nc1ccc(CC(=O)O)cc1	14.2 µM
O=C(CN1C(=O)c2ccccc2S1(=O)=O)c1ccc(Cl)cc1Cl	17.9 µM
Cc1ccc(S(=O)(=O)N2CCCCC2CCNC(=O)C(=O)NCc2ccncc2)cc1 (stereo not drawn)	38.4 µM (inactive)
N=c1ccn(Cc2ccccc2Cl)cc1	21.3 µM (inactive)
Cc1ccc(/C=C2\SC(=S)N(CCCC(=O)Nc3cc(C)on3)C2=O)cc1	> 80 µM (inactive)
CCOC(=O)C(=CNc1cc(C)ccc1C)C(=O)OCC	18.9 µM
COc1ccccc1/C=C1/SC(=S)N(CCC(=O)Nc2cccnc2)C1=O	37 µM (inactive)
NC(=S)N=Nc1c(O)n(Cc2ccccc2)c2ccccc12	> 80 µM (inactive)
CC(=O)c1cn(CCOc2cc(C)ccc2C)c2ccccc12	0.29 µM
Cc1cc(C)cc(OCc2nnc(SCC(=O)c3ccccc3)o2)c1	23.7 µM (inactive)
c1ccc(CCNc2ncnc3ccccc23)cc1	0.45 µM
Cn1c(=O)n(C)c2cc(/C=C3/NC(=O)N(Cc4ccccc4)C3=O)ccc21	> 80 µM (inactive)
Cc1ccc(C)c(OCc2ccc(C(=O)NN)o2)c1	> 80 µM (inactive)
Cc1ccc(S(=O)(=O)Nc2ccc3c(c2)n(C)c(=O)n3C)cc1	65.2 µM (inactive)
Nc1ccc(-c2cc3ccccc3oc2=O)cc1	3.53 µM
CC(C)(C)c1ccc(-c2noc(CCC(N)=O)n2)cc1	0.27 µM
O=C(CCCN1C(=O)/C(=C/c2ccccc2Cl)SC1=S)Nc1cccnc1	28.7 µM (inactive)
Cc1ccc(C(=O)OCC(=O)N(CC(C)C)c2c(N)n(Cc3ccccc3)c(=O)[nH]c2=O)o1	> 80 µM (inactive)
CCOc1ccc(-c2nnc(SCC(=O)Nc3cc(C)on3)o2)cc1	> 80 µM (inactive)
COc1ccc(/C=C/c2ccccc2)cc1[C@H]1[C@H]2C=CC[C@@H](C)[C@@H]2C(=O)N1Cc1ccccc1	> 80 µM (inactive)
Cc1cc(-c2cc(C(=O)NCc3ccccc3)on2)nc(S(C)(=O)=O)n1	15.6 µM
